Assay type in all cases: cell-based, human
The subject of experiment [1] is ERK and AKT in hTERT-RPE cells. Nature of the experiment: Western blot of AKT and ERK activation in serum-starved hTERT-RPE cells. The settings on record: 100 μM. An excerpt:
DLD-1 (KRASWT/G13D) (clone V15, #HD PAR-086) colorectal adenocarcinoma cell line and DLD-1 knockout of mutant KRAS allele, DLD-1 KO (KRASWT/−) (clone DWT7, #HD105-002), were obtained from Horizon Discovery Ltd. (Cambridge, UK). hTERT-RPE (KRASWT/WT) immortalized retinal pigment epithelial human cell line was obtained from the […] (ATCC). DLD-1 KO cells stably expressing HA-KRAS G12V were previously generated in our laboratory (Cabot et al., 2021). All cells were grown in DMEM-HAM s F12 (1:1) supplemented with 10% foetal bovine serum (Biological Industries, Israel), penicillin, streptomycin, and nonessential amino acids. […]
For analysis of RAS signalling, cells were lysed in a buffer containing 67 mM Tris-HCl pH 6.8 and 2% SDS and then the samples were heated at 97° C. for 15 minutes. Protein concentration of the lysates was assessed using the Lowry method. […]
Comparison of Ras signaling between DLD-1, DLD-1-KO and hTERT-RPE cells treated with P14B since important differences were observed between the viability of cells treated with P14B depending on their expression or lack of expression of oncogenic KRAS, we further studied whether these discrepancies were reflected also in KRAS downstream signaling. Serum-starved cells (0.1% FCS) were treated with P14B (100 μM) and activation of AKT and ERK was evaluated by WB. […]

For experiment [2], the system named is ERK and AKT in DLD-1 cells stably expressing HA-KRAS-G12V. Nature of the experiment: Western blot of AKT and ERK phosphorylation in DLD-1 cells stably expressing HA-KRAS-G12V. The settings on record: serum-starved DLD-1 cells stably expressing HA-KRAS-G12V. From the text:
(§1) DLD-1 (KRASWT/G13D) (clone V15, #HD PAR-086) colorectal adenocarcinoma cell line and DLD-1 knockout of mutant KRAS allele, DLD-1 KO (KRASWT/−) (clone DWT7, #HD105-002), were obtained from Horizon Discovery Ltd. (Cambridge, UK). hTERT-RPE (KRASWT/WT) immortalized retinal pigment epithelial human cell line was obtained from the […] (ATCC). DLD-1 KO cells stably expressing HA-KRAS G12V were previously generated in our laboratory (Cabot et al., 2021). All cells were grown in DMEM-HAM s F12 (1:1) supplemented with 10% foetal bovine serum (Biological Industries, Israel), penicillin, streptomycin, and nonessential amino acids. Cells were tested once per month for mycoplasma contamination.
Cells were seeded in a media containing 10% FBS for 24 hours and then they were serum starved (0.1% FBS) for the next 24 hours. Afterwards, they were incubated with the different compounds during the times specified in each figure. When indicated, also in order to activate downstream KRAS cell signalling, treatment for 10 minutes with EGF (50 ng/mL) (Sigma-Aldrich) was performed. […]
We assessed the possibility that P14B favors RAS-effector binding and consequently increases downstream RAS signaling. […] The interaction was analyzed after 10 min of P14B treatment since P—C-RAF and P-MEK were observed after 15 min (FIG. 3C). […]

A further experiment has as its system DLD-1 cells. Nature of the experiment: MTS cell viability assay, DLD-1.
Text: as §1
MTS viability assay (CellTiter 96® Aqueous One Solution Cell Proliferation Assay, Promega G3580) was assessed following the company conditions. The absorbance of each well was measured with a multimode plate reader (Spark, Tecan) at 490 nm. The percentage of cell viability was calculated by dividing the absorbance of each well by the average absorbance of the control wells.
Since both inhibition and sustained activation of RAS signaling are related to a decrease in cell survival, we analyzed the viability of the CRC cell lines DLD-1 (expressing oncogenic KRAS) and DLD-1-KO (oncogenic KRAS allele deleted), and the non-transformed cell line hTERT-RPE. […] At the IC50 of approximately 80 μM for DLD-1 cells, the viability of DLD-1-KO and of non-transformed cells was not affected (FIG. 6A). […] The effect of P14B in DLD-1 cells cultured in 3D conditions was also determined. […] Consequently, we conclude that P14B selectively reduces the viability of CRC cells expressing oncogenic KRAS, causing minor effects if these cells have been knocked out for oncogenic KRAS or in non-transformed cells. Thereby, P14B might be considered as an inducer of apoptosis in CRC with oncogenic KRAS.
[…] Each point corresponds to n=6. The concentration (μM) indicated in the graph is the one in the final 100 μL volume). **** p<0.0001 (t-student test).

In another experiment the test system is DLD-1-KO cells. Nature of the experiment: MTS cell viability assay, DLD-1-KO. The following applies: at approximately 80 μM.
Text: as §1
10,000 cells in 50 µL of 10% FBS-containing medium, were cultured for 24 hours and then treated with the compounds (50 μL final volume) for 48 h hours in each well of a 96-well plate (100 μL final volume). MTS viability assay (CellTiter 96® Aqueous One Solution Cell Proliferation Assay, Promega G3580) was assessed following the company conditions. The absorbance of each well was measured with a multimode plate reader (Spark, Tecan) at 490 nm. The percentage of cell viability was calculated by dividing the absorbance of each well by the average absorbance of the control wells. […]

For another experiment, the system named is hTERT-RPE cells. Put plainly: Cleaved caspase-3 Western blot, hTERT-RPE. The settings on record: hTERT-RPE cells treated 34 h or 48 h. The method, then:
FIG. 6C is a blot showing extracts of DLD-1, DLD-1-KO and RPE cells at 34 h. and 48 h. DLD-1 cells treated with P14B for 36 h and 48 h were lysed and the expression of the apoptosis marker cleaved caspase-3 was analyzed by Western blot. Cells treated with the apoptosis inducer palmitic acid (PA) were used as a positive control.
Proteins were resolved by SDS-PAGE, transferred onto PVDF membranes (Immobilon-P, Millipore) and Western blot was performed as previously described (Cabot et al, Oncogene 2021). […]
Since both inhibition and sustained activation of RAS signaling are related to a decrease in cell survival, we analyzed the viability of the CRC cell lines DLD-1 (expressing oncogenic KRAS) and DLD-1-KO (oncogenic KRAS allele deleted), and the non-transformed cell line hTERT-RPE. […] The effect of P14B in DLD-1 cells cultured in 3D conditions was also determined. […]

pIC50: −log10 of the molar value. “Also recorded” adds a separate entry of the source.

Regarding `COc1ccc(C(c2c(C)n[nH]c2O)c2c(C)n[nH]c2O)cc1Oc1ccc([N+](=O)[O-])cc1` [Example P14B], the “AKT and ERK phosphorylation” value in experiment [1] is listed as “no significant increase”. Further, the “phosphorylation of AKT and ERK” value in experiment [2] is “induced phosphorylation of AKT and ERK”. Further, the “maxim cell viability reduction compared with Erlotinib” value in the experiment on DLD-1 cells (DLD-1, 5000 cells, 48 h treatment) is given as “significantly higher”. In the experiment on DLD-1 cells (DLD-1 cells, dose-response 0 to 100 μM, 24 hours), the pIC50 is about 4.10. In addition, the cell viability result in the experiment on DLD-1 cells (DLD-1 cells, specifically at 75 μM and 100 μM) is “significantly reduced the cell viability; also recorded: decreases the viability”; in the experiment with DLD-1-KO cells it was “not affected”. For the same molecule, the “cleaved caspase-3 expression” value with hTERT-RPE cells was “undetectable”.

Values taken from patent US20260217656A1, “Compounds Affecting KRAS” (UNIVERSITAT DE BARCELONA, priority 2022, published 2026).
